From US12344623B2, “Thiazolopyridine derivatives as adenosine receptor antagonists” (Merck Patent GmbH, priority 2019, dated 2025)
Like-named read-outs stand apart in the source and are kept apart here.

Assays:
Type in all cases: cell-based
human A1 receptor = target: T1, human A1 receptor (Homo sapiens, UniProt P30542); assay: Functional A1 receptor activity, recombinant CHO cells, cAMP (HTRF), forskolin, agonist CPA; settings: recombinant CHO cells, forskolin, agonist CPA, read-out: Functional A1 receptor activity, CHO, cAMP, IC50
T1 construct: expressed in transfected cells; host or cells: CHO
T1 sequence (P30542 1-326): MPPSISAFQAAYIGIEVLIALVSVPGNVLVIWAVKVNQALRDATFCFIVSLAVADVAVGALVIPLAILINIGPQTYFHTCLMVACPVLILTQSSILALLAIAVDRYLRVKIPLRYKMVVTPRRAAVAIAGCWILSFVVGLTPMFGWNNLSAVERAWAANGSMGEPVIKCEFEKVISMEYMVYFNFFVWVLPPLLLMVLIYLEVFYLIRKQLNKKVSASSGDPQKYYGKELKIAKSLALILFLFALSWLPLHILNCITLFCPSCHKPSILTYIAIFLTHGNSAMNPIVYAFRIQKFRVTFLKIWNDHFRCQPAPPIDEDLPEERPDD
Method in brief: (§1)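 Recombinant CHO cells expressing A1 or A3 receptor (Gi-coupled) were stimulated with forskolin together with test compound and agonist (CPA for A1, IB-MECA for A3), incubated 30 min, then cellular cAMP was read by HTRF. Data were normalized to inhibitor control and DMSO neutral control, then curve-fitted.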

human A2B receptor = target: T2, human A2B receptor (Homo sapiens, UniProt P29275); assay: Functional A2B receptor activity, recombinant HEK293 cells, cAMP (HTRF), agonist NECA; settings: read-out: Functional A2B receptor activity, HEK293, cAMP, IC50
T2 construct: expressed in transfected cells; host or cells: HEK293
T2 sequence (P29275 1-332): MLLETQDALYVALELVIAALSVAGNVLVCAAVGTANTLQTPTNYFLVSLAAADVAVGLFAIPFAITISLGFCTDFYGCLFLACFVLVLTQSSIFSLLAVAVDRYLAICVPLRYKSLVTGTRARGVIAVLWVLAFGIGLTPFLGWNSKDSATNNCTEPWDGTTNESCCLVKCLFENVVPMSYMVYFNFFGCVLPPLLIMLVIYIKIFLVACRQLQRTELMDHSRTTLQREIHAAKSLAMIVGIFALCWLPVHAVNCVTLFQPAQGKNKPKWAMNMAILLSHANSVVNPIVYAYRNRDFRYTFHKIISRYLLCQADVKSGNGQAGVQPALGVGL
Method in brief: (§2)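 Cellular cAMP measured by HTRF after 30 min incubation of cells with forskolin, test compounds and agonist. Data normalized to inhibitor control and DMSO neutral control, then curve-fitted.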

human A3 receptor = target: T3, human A3 receptor (Homo sapiens, UniProt P0DMS8); assay: Functional A3 receptor activity, recombinant CHO cells, cAMP (HTRF), forskolin, agonist IB-MECA; settings: recombinant CHO cells, forskolin, agonist IB-MECA, read-out: Functional A3 receptor activity, CHO, cAMP, IC50
T3 construct: expressed in transfected cells; host or cells: CHO
T3 sequence (P0DMS8 1-318): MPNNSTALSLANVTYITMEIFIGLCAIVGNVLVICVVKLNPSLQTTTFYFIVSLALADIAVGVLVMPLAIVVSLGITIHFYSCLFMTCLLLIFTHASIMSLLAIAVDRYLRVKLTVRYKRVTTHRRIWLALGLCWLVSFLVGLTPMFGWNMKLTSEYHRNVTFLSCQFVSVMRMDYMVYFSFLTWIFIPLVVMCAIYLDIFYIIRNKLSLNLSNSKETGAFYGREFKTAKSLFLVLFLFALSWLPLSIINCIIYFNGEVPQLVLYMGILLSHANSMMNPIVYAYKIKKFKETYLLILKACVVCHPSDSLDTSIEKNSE
Method in brief: as §1

human A2A receptor = human A2A receptor (Homo sapiens, UniProt P29274); assay: Functional A2A receptor activity, recombinant HEK293 cells, cAMP (HTRF), agonist NECA; parameters: expressed in transfected cells; host or cells: HEK293; settings: read-out: Functional A2A receptor activity, HEK293, cAMP, IC50
Method in brief: as §2

Sequence of human A2A receptor (P29274 whole entry): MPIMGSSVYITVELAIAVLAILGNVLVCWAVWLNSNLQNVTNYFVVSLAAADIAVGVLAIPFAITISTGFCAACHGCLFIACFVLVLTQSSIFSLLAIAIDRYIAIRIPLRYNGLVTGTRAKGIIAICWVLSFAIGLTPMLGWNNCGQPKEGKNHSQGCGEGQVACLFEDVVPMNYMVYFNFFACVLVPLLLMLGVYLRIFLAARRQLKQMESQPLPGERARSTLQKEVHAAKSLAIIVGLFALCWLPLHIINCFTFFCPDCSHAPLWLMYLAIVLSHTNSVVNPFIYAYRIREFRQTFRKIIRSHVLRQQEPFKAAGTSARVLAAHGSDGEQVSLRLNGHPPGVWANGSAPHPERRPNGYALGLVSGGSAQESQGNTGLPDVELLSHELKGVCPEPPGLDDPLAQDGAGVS

Row | IC50 (human A1 receptor) [nM] | IC50 (human A2B receptor) [nM] | IC50 (human A3 receptor) [nM] | IC50 (human A2A receptor) [nM] | IC50 (human A1 receptor; cAMP) [nM] | IC50 (human A3 receptor; cAMP) [nM] | SMILES
1 | < 100 | < 100 | > 1000 | < 10 |  |  | COc1ncc(-c2cnn(CC3CCCCO3)c2)c2sc(NC(=O)N3CCC4(CCOCC4)C3)nc12 (centres unmarked) [Compound 84, 8-Oxa-2-aza-spiro[4.5]decane-2-carboxylic acid {4-methoxy-7-[1-(tetrahydro-pyran-2-ylmethyl)-1H-pyrazol-4-yl]-thiazolo[4,5-c]pyridin-2-yl}-amide]
2 | > 1000 | < 100 | > 1000 | < 10 |  |  | COc1nc(F)c(C2CCOCC2)c2sc(NC(=O)N3CC[C@]4(CCCOC4)C3)nc12 [Compound 34, (R)-7-Oxa-2-aza-spiro[4.5]decane-2-carboxylic acid [6-fluoro-4-methoxy-7-(tetrahydro-pyran-4-yl)-thiazolo[4,5-c]pyridin-2-yl]-amide]
3 | > 1000 | < 100 | > 1000 | < 10 |  |  | COc1ncc(C2CCCCC2)c2sc(NC(=O)N3CCC4(CCOCC4)C3)nc12 [Compound 62, 8-Oxa-2-aza-spiro[4.5]decane-2-carboxylic acid (7-cyclohexyl-4-methoxy-thiazolo[4,5-c]pyridin-2-yl)-amide]
4 | > 1000 | < 100 | > 1000 | < 10 |  |  | COc1ncc(-c2ccccc2)c2sc(NC(=O)N3CCC(C(=O)N(C)C)CC3)nc12 [Compound 123, Piperidine-1,4-dicarboxylic acid 4-dimethylamide 1-[(4-methoxy-7-phenyl-thiazolo[4,5-c]pyridin-2-yl)-amide]]
5 | > 1000 | < 100 | > 1000 | < 10 |  |  | COc1ncc(-c2ccc3cc[nH]c3c2)c2sc(NC(=O)N3CCC4(CCOCC4)C3)nc12 [Compound 9, N-[7-(1H-indol-6-yl)-4-methoxy-[1,3]thiazolo[4,5-c]pyridin-2-yl]-8-oxa-2-azaspiro[4.5]decane-2-carboxamide]
6 | < 1000 | < 10 | > 1000 | < 10 |  |  | COc1nc(F)c(C2CCOCC2)c2sc(NC(=O)c3cnn(C)c3)nc12 [Compound 23, N-[6-fluoro-4-methoxy-7-(oxan-4-yl)-[1,3]thiazolo[4,5-c]pyridin-2-yl]-1-methyl-1H-pyrazole-4-carboxamide]
7 |  | < 1000 |  | < 10 | < 1000 | < 1000 | COc1ccc(-c2cnn(C)c2)c2sc(NC(=O)N3CCC(C)(O)CC3)nc12 [reference compound]
8 | > 1000 | < 100 | > 1000 | < 10 |  |  | COc1ncc(C2=CCOCC2)c2sc(NC(=O)Nc3ccc(N4N=C(C)CC4=O)cc3)nc12 [Compound 94, 3-[7-(3,6-dihydro-2H-pyran-4-yl)-4-methoxy-[1,3]thiazolo[4,5-c]pyridin-2-yl]-1-[4-(3-methyl-5-oxo-4,5-dihydro-1H-pyrazol-1-yl)phenyl]urea]
9 | < 1000 | < 100 | > 1000 | < 10 |  |  | COc1ncc(-c2cnn(C(F)F)c2)c2sc(NC(=O)N3CCC4(CCOCC4)C3)nc12 [Compound 79, 8-Oxa-2-aza-spiro[4.5]decane-2-carboxylic acid [7-(1-difluoromethyl-1H-pyrazol-4-yl)-4-methoxy-thiazolo[4,5-c]pyridin-2-yl]-amide]
10 | > 1000 | < 100 | > 1000 | < 10 |  |  | COc1ncc(-c2cccc(NCc3cocn3)c2)c2sc(NC(=O)N3CCC4(CCOCC4)C3)nc12 [Compound 166, 8-Oxa-2-aza-spiro[4.5]decane-2-carboxylic acid (4-methoxy-7-{3-[(oxazol-4-ylmethyl)-amino]-phenyl}-thiazolo[4,5-c]pyridin-2-yl)-amide]
11 | > 1000 | < 10 | > 1000 | < 10 |  |  | COc1ncc(-c2ccccc2)c2sc(NC(=O)c3ccc(C(=O)O)cc3)nc12 [Compound 109, 4-({4-methoxy-7-phenyl-[1,3]thiazolo[4,5-c]pyridin-2-yl}carbamoyl)benzoic acid]
12 | > 1000 | < 10 | > 1000 | < 10 |  |  | COc1ncc(C2=CCOCC2)c2sc(NC(=O)Nc3ccc(NC(=O)CN(C)C)cc3)nc12 [Compound 90, N-[4-({[7-(3,6-dihydro-2H-pyran-4-yl)-4-methoxy-[1,3]thiazolo[4,5-c]pyridin-2-yl]carbamoyl}amino)phenyl]-2-(dimethylamino)acetamide]
13 | < 1000 | < 10 | < 1000 | < 10 |  |  | COCCn1cc(C(=O)Nc2nc3c(OC)nc(F)c(C4CCOCC4)c3s2)cn1 [Compound 22, N-[6-fluoro-4-methoxy-7-(oxan-4-yl)-[1,3]thiazolo[4,5-c]pyridin-2-yl]-1-(2-methoxyethyl)-1H-pyrazole-4-carboxamide]
14 | > 1000 | < 1000 | > 1000 | < 10 |  |  | COc1ncc(C2=CCC(OC)CC2)c2sc(NC(=O)N3CC[C@]4(CCCOC4)C3)nc12 (stereo partly drawn) [Compound 70, (5R)-N-[4-methoxy-7-(4-methoxycyclohex-1-en-1-yl)-[1,3]thiazolo[4,5-c]pyridin-2-yl]-7-oxa-2-azaspiro[4.5]decane-2-carboxamide]
15 |  | < 1000 |  | < 10 | > 1000 | > 1000 | COc1cnc(N2CCOCC2)c2sc(NC(=O)N3CCC(CO)CC3)nc12 [drawing 188, reference compound]
16 | > 1000 | < 1000 | > 1000 | < 10 |  |  | COc1ncc(C2=CCC(OC)CC2)c2sc(NC(=O)N3CC[C@@]4(CCCOC4)C3)nc12 (stereo partly drawn) [Compound 77, (5S)-N-[4-methoxy-7-(4-methoxycyclohex-1-en-1-yl)-[1,3]thiazolo[4,5-c]pyridin-2-yl]-7-oxa-2-azaspiro[4.5]decane-2-carboxamide]
17 | < 1000 | < 10 | > 1000 | < 10 |  |  | COc1ncc(C2=CCOCC2)c2sc(NC(=O)c3cnn(-c4ccncc4)c3)nc12 [Compound 157, 1-Pyridin-4-yl-1H-pyrazole-4-carboxylic acid [7-(3,6-dihydro-2H-pyran-4-yl)-4-methoxy-thiazolo[4,5-c]pyridin-2-yl]-amide]
18 | > 1000 | < 100 | > 1000 | < 10 |  |  | COc1ncc(-c2cnn(Cc3ccncc3)c2)c2sc(NC(=O)N3CCC4(CCOCC4)C3)nc12 [Compound 75, 8-Oxa-2-aza-spiro[4.5]decane-2-carboxylic acid [4-methoxy-7-(1-pyridin-4-ylmethyl-1H-pyrazol-4-yl)-thiazolo[4,5-c]pyridin-2-yl]-amide]
19 | > 1000 | < 100 | > 1000 | < 10 |  |  | COc1ncc([C@@H]2COCCO2)c2sc(NC(=O)c3ccc(C(=O)O)cc3)nc12 [Compound 169, N-((R)-7-[1,4]Dioxan-2-yl-4-methoxy-thiazolo[4,5-c]pyridin-2-yl)-terephthalamic acid]
20 | < 1000 | < 10 | > 1000 | < 10 |  |  | COc1nc(F)c(-c2ccc(F)cc2)c2sc(NC(=O)N3CCC(C)(O)CC3)nc12 [Compound 27, 4-Hydroxy-4-methyl-piperidine-1-carboxylic acid [6-fluoro-7-(4-fluoro-phenyl)-4-methoxy-thiazolo[4,5-c]pyridin-2-yl]-amide]
